Measured values published in publication PMC3764917 (Journal of medicinal chemistry, 2012).
Structures can show the parent of a compound that is named as a salt.

What was measured:
[1] = humans; cited from earlier work
FAAH = target: T1, FAAH (Rattus norvegicus, UniProt P97612); assay: FAAH activity: [3H]anandamide hydrolysis by total rat brain homogenates; assay type: biochemical
T1 sequence (P97612 1-579): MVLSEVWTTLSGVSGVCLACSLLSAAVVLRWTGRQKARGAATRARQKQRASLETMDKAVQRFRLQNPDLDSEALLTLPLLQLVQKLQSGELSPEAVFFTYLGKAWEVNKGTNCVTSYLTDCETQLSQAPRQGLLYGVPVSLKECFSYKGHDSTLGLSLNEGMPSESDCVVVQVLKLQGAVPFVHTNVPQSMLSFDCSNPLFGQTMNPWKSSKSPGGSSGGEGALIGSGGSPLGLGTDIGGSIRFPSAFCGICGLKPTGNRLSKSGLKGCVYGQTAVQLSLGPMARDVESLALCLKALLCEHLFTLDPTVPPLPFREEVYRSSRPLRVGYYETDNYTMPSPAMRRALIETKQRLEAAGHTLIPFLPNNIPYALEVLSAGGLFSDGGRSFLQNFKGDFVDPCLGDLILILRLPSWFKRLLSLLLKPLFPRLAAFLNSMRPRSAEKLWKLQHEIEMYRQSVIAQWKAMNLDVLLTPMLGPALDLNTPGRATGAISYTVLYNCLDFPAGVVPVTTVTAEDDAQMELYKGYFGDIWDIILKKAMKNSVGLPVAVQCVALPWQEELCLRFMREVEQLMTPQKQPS

human COX-2 = target: T2, human COX-2 (Homo sapiens, UniProt P35354); assay: COX activity, commercial enzyme immunoassay kit
T2 sequence (P35354 18-604): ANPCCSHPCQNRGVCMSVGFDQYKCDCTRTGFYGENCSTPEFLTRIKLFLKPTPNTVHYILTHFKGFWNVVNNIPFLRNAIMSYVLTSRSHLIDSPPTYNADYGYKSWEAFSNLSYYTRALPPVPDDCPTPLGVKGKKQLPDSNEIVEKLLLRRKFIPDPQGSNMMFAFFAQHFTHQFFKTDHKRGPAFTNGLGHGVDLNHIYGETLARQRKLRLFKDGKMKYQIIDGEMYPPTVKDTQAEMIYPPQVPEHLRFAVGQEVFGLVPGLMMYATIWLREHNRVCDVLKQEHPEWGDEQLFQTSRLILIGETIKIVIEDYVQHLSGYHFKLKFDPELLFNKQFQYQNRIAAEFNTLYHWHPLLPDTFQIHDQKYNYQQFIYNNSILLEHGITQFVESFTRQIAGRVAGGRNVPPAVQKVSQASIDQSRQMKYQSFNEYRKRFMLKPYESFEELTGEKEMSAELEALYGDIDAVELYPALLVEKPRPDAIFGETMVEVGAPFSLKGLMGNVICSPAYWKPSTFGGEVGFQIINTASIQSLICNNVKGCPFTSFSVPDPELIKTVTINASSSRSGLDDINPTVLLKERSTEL

ovine COX-1 = target: T3, ovine COX-1 (Ovis aries, UniProt P05979); assay: COX activity, commercial enzyme immunoassay kit
T3 sequence (P05979 25-600): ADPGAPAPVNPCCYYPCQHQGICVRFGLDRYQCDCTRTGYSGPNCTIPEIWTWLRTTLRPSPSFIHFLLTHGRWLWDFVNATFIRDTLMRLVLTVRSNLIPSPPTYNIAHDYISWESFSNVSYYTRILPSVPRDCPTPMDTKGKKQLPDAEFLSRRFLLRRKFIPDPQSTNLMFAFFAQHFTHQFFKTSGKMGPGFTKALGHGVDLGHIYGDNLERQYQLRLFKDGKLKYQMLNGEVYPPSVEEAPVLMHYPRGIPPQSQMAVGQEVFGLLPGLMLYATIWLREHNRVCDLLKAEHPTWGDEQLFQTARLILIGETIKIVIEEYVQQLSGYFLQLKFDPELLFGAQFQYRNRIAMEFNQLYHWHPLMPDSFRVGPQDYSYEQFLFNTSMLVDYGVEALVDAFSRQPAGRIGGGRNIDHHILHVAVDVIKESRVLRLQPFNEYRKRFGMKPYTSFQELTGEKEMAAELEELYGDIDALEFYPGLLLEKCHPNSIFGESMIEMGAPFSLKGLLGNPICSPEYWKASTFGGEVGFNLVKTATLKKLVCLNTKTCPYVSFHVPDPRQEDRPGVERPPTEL

COX-2 = details: oxygen electrode assay, arachidonic acid as substrate; cited from earlier work

Compound	COX-2 inhibition, result in words (human COX-2)	COX-1 inhibition, result in words (ovine COX-1)	further results
CC(C(=O)O)c1ccc2c(c1)[nH]c1ccc(Cl)cc12 (centres unmarked) [Compound 1, carprofen]	–	–	ulcerogenic side effects compared to other NSAIDs [1]: reduced ulcerogenic side effects
CC(C(=O)O)c1ccc2c(c1)[nH]c1ccccc12 (centres unmarked) [Compound 2, 2-(9H-carbazol-2-yl)propanoic acid]	–	–	IC50 (FAAH): 5 µM
COC(=O)C(C)c1ccc2c(c1)[nH]c1ccc(Cl)cc12 (centres unmarked) [Compound 3, Methyl 2-(6-chloro-9H-carbazol-2-yl)propanoate]	lack of activity	lack of activity	–
CC(C(=O)NCCO)c1ccc2c(c1)[nH]c1ccc(Cl)cc12 (centres unmarked) [Compound 4a, 2-(6-chloro-9H-carbazol-2-yl)-N-(2-hydroxyethyl)propanamide]	lack of activity	lack of activity	–
CC(C(=O)Nc1ccccc1)c1ccc2c(c1)[nH]c1ccc(Cl)cc12 (centres unmarked) [Compound 4b, 2-(6-chloro-9H-carbazol-2-yl)-N-phenylpropanamide]	lack of activity	lack of activity	–
CC(C(=O)O)c1ccc2c3cc(Cl)ccc3n(Cc3ccccc3)c2c1 (centres unmarked) [Compound 6b, 2-(9-benzyl-6-chloro-9H-carbazol-2-yl)propanoic acid]	–	–	increase in FAAH potency compared to 1 (FAAH; ratio of FAAH IC50 values versus compound 1): 3 fold
COc1ccccc1Cn1c2ccc(Cl)cc2c2ccc(C(C)C(=O)O)cc21 (centres unmarked) [Compound 6g, 2-(6-chloro-9-(2-methoxybenzyl)-9H-carbazol-2-yl)propanoic acid]	–	–	FAAH activity at 30 μM, result in words (FAAH; 30 μM): no activity
CCCCCCNC(=O)n1c2ccc(Cl)cc2c2ccc(C(C)C(=O)O)cc21 (centres unmarked) [Compound 10a, 2-(6-chloro-9-(hexylcarbamoyl)-9H-carbazol-2-yl)propanoic acid]	–	–	IC50 (FAAH): 3 µM
CNC(=O)n1c2ccc(Cl)cc2c2ccc(C(C)C(=O)O)cc21 (centres unmarked) [Compound 10b, 2-[6-chloro-9-(methylcarbamoyl)carbazol-2-yl]propanoic acid]	–	–	FAAH inhibition, result in words (FAAH): no inhibition
CCCCNC(=O)n1c2ccc(Cl)cc2c2ccc(C(C)C(=O)O)cc21 (centres unmarked) [Compound 10c, 2-(9-(butylcarbamoyl)-6-chloro-9H-carbazol-2-yl)propanoic acid]	–	–	FAAH inhibition, result in words (FAAH): no inhibition
CCCCCCOC(=O)n1c2ccc(Cl)cc2c2ccc(C(C)C(=O)O)cc21 (centres unmarked) [Compound 12, 2-(6-chloro-9-((hexyloxy)carbonyl)-9H-carbazol-2-yl)propanoic acid]	–	–	weaker potency against FAAH compared to 10a (FAAH; ratio of FAAH IC50 values versus 10a): 10 fold
CC(=O)n1c2ccc(Cl)cc2c2ccc(C(C)C(=O)O)cc21 (centres unmarked) [Compound 15a, 2-(9-acetyl-6-chloro-9H-carbazol-2-yl)propanoic acid]	did not show any inhibitory potency	did not show any inhibitory potency	FAAH inhibition, result in words (FAAH): did not show any inhibitory potency
CC(C(=O)O)c1ccc2c3cc(Cl)ccc3n(C(=O)c3ccc(F)cc3)c2c1 (centres unmarked) [Compound 15d, 2-(6-chloro-9-(4-fluorobenzoyl)-9H-carbazol-2-yl)propanoic acid]	did not inhibit	did not inhibit	–
COc1ccc(C(=O)n2c3ccc(Cl)cc3c3ccc(C(C)C(=O)O)cc32)cc1 (centres unmarked) [Compound 15e, 2-(6-chloro-9-(4-methoxybenzoyl)-9H-carbazol-2-yl)propanoic acid]	did not inhibit	did not inhibit	–
CC(C(=O)O)c1ccc2c3cc(Cl)ccc3n(C(=O)c3cccc(Cl)c3)c2c1 (centres unmarked) [Compound 15f, 2-(6-chloro-9-(3-chlorobenzoyl)-9H-carbazol-2-yl)propanoic acid]	lost	lost	–
CC(C(=O)O)c1ccc2c3cc(Cl)ccc3n(C(=O)c3ccccc3Cl)c2c1 (centres unmarked) [Compound 15g, 2-(6-chloro-9-(2-chlorobenzoyl)-9H-carbazol-2-yl)propanoic acid]	lost	lost	–
CC(C(=O)O)c1ccc2c3cc(Cl)ccc3n(C(=O)c3ccc(Cl)c(Cl)c3)c2c1 (centres unmarked) [Compound 15h, 2-(6-chloro-9-(3,4-dichlorobenzoyl)-9H-carbazol-2-yl)propanoic acid]	total loss of activity	total loss of activity	FAAH inhibition, result in words (FAAH): total loss of activity
CC(C(=O)O)c1ccc2c3cc(Cl)ccc3n(C(=O)c3c[nH]cn3)c2c1 (centres unmarked) [Compound 15j, 2-(6-chloro-9-(1H-imidazole-4-carbonyl)-9H-carbazol-2-yl)propanoic acid hydrochloride]	no relevant inhibition	–	IC50 (FAAH): 6 µM
CC(C(=O)O)c1ccc2c3cc(Cl)ccc3n(C(=O)c3cscn3)c2c1 (centres unmarked) [Compound 15k, 2-(6-chloro-9-(thiazole-4-carbonyl)-9H-carbazol-2-yl)propanoic acid]	detrimental	detrimental	FAAH inhibition, result in words (FAAH): detrimental
Cc1cccnc1NC(=O)C(C)c1ccc(CC(C)C)cc1 (centres unmarked) [ibu-am5, N-(3-methylpyridin-2-yl)-2-(4-isobutylphenyl)-propionamide]	–	–	COX-2 inhibition, result in words (COX-2): inactive
CC(C)Cc1ccc(C(C)C(=O)O)cc1 (centres unmarked) [ibuprofen, reference compound]	–	–	FAAH inhibition, result in words (FAAH): very weak
